According to patent publication US7528106B2, “Compositions and methods for treatment of neovascular diseases” (The Scripps Research Institute, priority 2004, dated 2009):

System: deep retinal vascular network formation in neonatal Balb/C mice
Assay: Neonatal mouse retinal angiogenesis model
Assay type: in vivo
From the text: Description of the Model. Immediately after birth (postnatal day zero; “P0”), retinal vasculature is virtually absent in the mouse. By four weeks after birth (P28) the retina has attained an adult pattern of retinal vessels coincident with the onset of vision. Physiological neovascularization of the retina occurs during this period via a stereotypical, biphasic developmental pattern of angiogenesis. During the primary phase of retinal vascular development, spoke-like peripapillary vessels grow radially from the central retinal artery and vein, becoming progressively interconnected by a capillary plexus that forms between them. This “inner retinal plexus” grows in area, volume and complexity, centrifugally, as a monolayer within the nerve fiber layer during the first seven to ten days following birth.
The second phase of retinal vessel formation begins between postnatal days 7 (P7) and 10 (P10) when collateral branches sprout from capillaries of the superficial plexus and penetrate into the retina where their tips branch and anastamose laterally to form a planar “deep vascular plexus”. While the deep vascular plexus is in place by P14, it undergoes extensive remodeling from P14 to P21. It is of interest to note that the formation of these vascular networks in the neonatal mouse are strikingly similar to the events occurring in the third trimester human fetus.
Advantages and Quantification of the Model. The reproducibility of the murine retinal development process and its easy accessibility in neonatal animals provide an opportunity to assess the efficacy of antiangiogenic compounds in a physiologically relevant model of angiogenesis. Additional advantages of the neonatal mouse model are the ability to qualitatively and quantitatively evaluate the angiostatic effect of putative antagonists of angiogenesis. Angiostatic activity was evaluated based upon the degree of angiogenesis in the deep, outer retinal vascular layer (secondary layer) that develops between P8 and P12. The appearance of the inner blood vessel network (primary layer) was evaluated for normal development and signs of toxicity.
Preparation of Compositions. Peptidomimetic integrin signaling inhibitor Compound (1) is solubilized in PBS at a concentration of about 20 mg/ml in PBS (1× concentration). T2-TrpRS is solubilized in PBS at a concentration of about 0.5 mg/ml (1× concentration). VEGF aptamer (pegaptanib sodium; Compound (2)) is solubilized in PBS at a concentration of about 2 mg/ml (1× concentration) to achieve an injection of approximately 1 μg/eye at 1× concentration. For all combination assays the compounds were prepared at 2 or 3 times the 1× concentration of each material and then combined to produce a final solution containing each individual compound at the same concentration as was used alone (e.g., 1×, 0.5×, 0.25× or 0.1×, as the case may be). For all assays, a single injection of 0.5 μl of PBS solutions of the drugs was administered intravitreally regardless of the number of compounds being injected. As used herein, the term “0.1×” refers to one tenth of the 1× concentration of a given material, “0.25×” refers to one quarter of the 1× concentration of a given material, “0.5×” refers to one half of the 1× concentration of a given material, and so forth for similar designations.
An in vivo angiogenesis assay in the neonatal mouse (Balb/C, The Jackson Laboratory, Bar Harbor, Me.) was used to evaluate the angiostatic activity of integrin signaling inhibitor Compound (1), T2-TrpRS, and VEGF aptamer Compound (2). Intravitreous injection and retina isolation was performed with a dissecting microscope (SMZ 645, Nikon, Japan). […] The samples (0.5 μl) were injected with a Hamilton syringe fitted with a 32-gauge needle (Hamilton Company, Reno, Nev.). The injection was made between the equator and the corneal limbus. During injection, the location of the needle tip was monitored by direct visualization to determine that it was in the vitreal cavity. […]

[1] = Ex 1, 0.5× (1×=2 mg/ml), intravitreal P8, read P12
[2] = Ex 2, 0.1× of each (1×: T2-TrpRS 0.5, Comp. (2) 2 mg/ml), intravitreal P4, read P12
[3] = Ex 3, 1× of each (T2-TrpRS 0.5, Comp. (2) 2 mg/ml), intravitreal P4, read P12
[4] = Ex 4, 0.5× (1×=2 mg/ml), intravitreal P4, read P12
[5] = Ex 6, 1× of each (T2-TrpRS 0.5, Comp. (2) 2 mg/ml), intravitreal P4, read P12
[6] = Ex 7, 1× (T2-TrpRS 0.5, Comp. (2) 2 mg/ml), intravitreal P4, read P12
[7] = Ex 8, 0.25× (1×=2 mg/ml), intravitreal P4, read P12
[8] = Ex 9, 1× of each (Comp. (1) 20, Comp. (2) 2, T2-TrpRS 0.5 mg/ml), intravitreal P4, read P12
[9] = Table 12, composite data from the Examples, 1× (Compound (2) 0.5× to 1×)
[10] = Table 13A, 1-2 μg per eye, intravitreal P7, read P12
[11] = Table 13C low dosing, 0.1x (integrin ant. 1.0 μg, VEGF apt. 0.20 μg, T2-TrpRS 0.025 μg)

pegaptanib sodium [Compound (2)]
inhibition of neovascularization (0.1× concentrations (1 μg/eye integrin antagonist, 0.2 μg/eye VEGF aptamer, 0.025 μg/eye T2-TrpRS)): negligible
% of eyes with 0-10% inhibition of deep vascular layer [1]: 20%
% of eyes with 10-25% inhibition of deep vascular layer [1]: 20%
% of eyes with 25-50% inhibition of deep vascular layer [1]: 20%
% of eyes with 50-75% inhibition of deep vascular layer [1]: 20%
% of eyes with 75-100% inhibition of deep vascular layer [1]: 40%
% of eyes with 0-10% inhibition of deep vascular layer [2]: 87.5%
% of eyes with 10-25% inhibition of deep vascular layer [2]: 12.5%
% of eyes with 25-50% inhibition of deep vascular layer [2]: 0%
% of eyes with 50-75% inhibition of deep vascular layer [2]: 0%
% of eyes with 75-100% inhibition of deep vascular layer [2]: 0%
% of eyes with 100% inhibition of deep vascular layer [2]: 0%
% of eyes with >95% inhibition of deep vascular layer [2]: 0%
% of eyes with 0-10% inhibition of deep vascular layer [3]: 37.5%
% of eyes with 10-25% inhibition of deep vascular layer [3]: 12.5%
% of eyes with 25-50% inhibition of deep vascular layer [3]: 12.5%
% of eyes with 50-75% inhibition of deep vascular layer [3]: 12.5%
% of eyes with 75-100% inhibition of deep vascular layer [3]: 25%
% of eyes with 100% inhibition of deep vascular layer [3]: 0%
% of eyes with >95% inhibition of deep vascular layer [3]: 0%
% of eyes with 0-10% inhibition of deep vascular layer [4]: 60%
% of eyes with 10-25% inhibition of deep vascular layer [4]: 30%
% of eyes with 25-50% inhibition of deep vascular layer [4]: 0%
% of eyes with 50-75% inhibition of deep vascular layer [4]: 0%
% of eyes with 75-100% inhibition of deep vascular layer [4]: 10%
% of eyes with 100% inhibition of deep vascular layer [4]: 0%
% of eyes with >95% inhibition of deep vascular layer [4]: 0%
% of eyes with 0-10% inhibition of deep vascular layer [5]: 37.5%
% of eyes with 10-25% inhibition of deep vascular layer [5]: 25%
% of eyes with 25-50% inhibition of deep vascular layer [5]: 12.5%
% of eyes with 50-75% inhibition of deep vascular layer [5]: 25%
% of eyes with 75-100% inhibition of deep vascular layer [5]: 0%
% of eyes with 100% inhibition of deep vascular layer [5]: 0%
% of eyes with >95% inhibition of deep vascular layer [5]: 0%
% of eyes with 0-10% inhibition of deep vascular layer [6]: 25%
% of eyes with 10-25% inhibition of deep vascular layer [6]: 25%
% of eyes with 25-50% inhibition of deep vascular layer [6]: 0%
% of eyes with 50-75% inhibition of deep vascular layer [6]: 12.5%
% of eyes with 75-100% inhibition of deep vascular layer [6]: 37.5%
% of eyes with 100% inhibition of deep vascular layer [6]: 0%
% of eyes with >95% inhibition of deep vascular layer [6]: 0%
% of eyes with 0-10% inhibition of deep vascular layer [7]: 54.5%
% of eyes with 10-25% inhibition of deep vascular layer [7]: 36.4%
% of eyes with 25-50% inhibition of deep vascular layer [7]: 0%
% of eyes with 50-75% inhibition of deep vascular layer [7]: 0%
% of eyes with 75-100% inhibition of deep vascular layer [7]: 9.1%
% of eyes with 100% inhibition of deep vascular layer [7]: 0%
% of eyes with >95% inhibition of deep vascular layer [7]: 0%
% of eyes with 0-10% inhibition of deep vascular layer [8]: 25%
% of eyes with 10-25% inhibition of deep vascular layer [8]: 0%
% of eyes with 25-50% inhibition of deep vascular layer [8]: 12.5%
% of eyes with 50-75% inhibition of deep vascular layer [8]: 12.5%
% of eyes with 75-100% inhibition of deep vascular layer [8]: 50%
% of eyes with 100% inhibition of deep vascular layer [8]: 12.5%
% of eyes with >95% inhibition of deep vascular layer [8]: 25%
% of mice with 0-10% inhibition of deep vascular layer [9]: 39.1%
% of mice with 10-25% inhibition of deep vascular layer [9]: 20%
% of mice with 25-50% inhibition of deep vascular layer [9]: 7.6%
% of mice with 50-75% inhibition of deep vascular layer [9]: 11.9%
% of mice with 75-100% inhibition of deep vascular layer [9]: 21.4%
% of mice with 100% inhibition of deep vascular layer [9]: 2.4%
% of mice with >95% inhibition of deep vascular layer [9]: 4.7%
Percentage of retinas with 0-10% neovascular inhibition [10]: 39.1%
Percentage of retinas with 10-25% neovascular inhibition [10]: 20.0%
Percentage of retinas with 25-50% neovascular inhibition [10]: 7.6%
Percentage of retinas with 50-75% neovascular inhibition [10]: 11.9%
Percentage of retinas with 100% neovascular inhibition [10]: 2.4%
Percentage of retinas with >75% neovascular inhibition [10]: 21.4%
Percentage of retinas with >90% neovascular inhibition [10]: 4.7%
Percentage of retinas with 0-10% neovascular inhibition [11]: 75%
Percentage of retinas with 10-25% neovascular inhibition [11]: 25%
Percentage of retinas with 25-50% neovascular inhibition [11]: 0%
Percentage of retinas with 50-75% neovascular inhibition [11]: 0%
Percentage of retinas with 100% neovascular inhibition [11]: 0%
Percentage of retinas with >75% neovascular inhibition [11]: 0%
Percentage of retinas with >90% neovascular inhibition [11]: 0%
retinas that exhibited over 75% inhibition (monotherapy at optimal dose): 21%
retinas unaffected by injection (monotherapy at the maximum individual dose): around 35%
